Tests used:
Format in all cases: in vivo
[1] = tested on: red mites (Dermanyssus gallinae); assay: Test Example 4: controlling effect on red mites, Pasteur pipette treated with acetone solution; details: 24 hours after treatment, unfed adult red mites; for pest or weed control at 5000 ppm: Dermanyssus gallinae, read-out: Ratio of dead and affected mites; for Ratio of dead and affected mites: 5000 ppm
Source text: The tip of a Pasteur pipette was sealed with Parafilm, and an acetone solution (liquid agent) of each of the samples shown in Table 5 below diluted to a predetermined concentration was poured into the pipette through an upper portion thereof. One minute later, the Parafilm at the tip was detached, and the liquid agent was discharged. After the pipette was air dried, absorbent cotton was inserted to an upper end of the pipette, and 20 unfed adult red mites (Dermanyssus gallinae) were released into the pipette. After the tip was sealed with Hemato-Seal, the pipette was stored in the dark in an incubator at a temperature of 25 to 28° C. and a humidity of 40 to 60%. […] Then, the ratio (%) of dead and affected mites was calculated according to the following formula. Acequinocyl and fluacrypyrim were used as control drugs. The ratio (%) of dead and affected mites={(the number of dead mites+the number of affected mites)/(the number of survived mites+the number of affected mites+the number of dead mites)}×100

[2] = tested on: northern fowl mites (Ornithonyssus sylviarum); assay: Test Example 3: controlling effect on northern fowl mites, Pasteur pipette treated with acetone solution; details: fed adult northern fowl mites
Source text: The tip of a Pasteur pipette was sealed with Parafilm, and an acetone solution (liquid agent) of each of the samples shown in Table 4 below diluted to a predetermined concentration was poured into the pipette through an upper portion thereof. One minute later, the Parafilm at the tip was detached, and the liquid agent was discharged. After the pipette was air dried, absorbent cotton was inserted to an upper end of the pipette, and 10 fed adult northern fowl mites (Ornithonyssus sylviarum) were released into the pipette. After the tip was sealed with Hemato-Seal, the pipette was stored in the dark in an incubator at 25° C. and at a humidity of 80%. After 2 and 24 hours had passed since the treatment, the mites were observed under a stereomicroscope to determine whether the mites were dead or alive and whether the mites were affected. Then, the ratio (%) of dead and affected mites was calculated. The ratio (%) of dead and affected mites={(the number of dead mites+the number of affected mites)/(the number of survived mites+the number of affected mites+the number of dead mites)}×100

[3] = tested on: red mites (Dermanyssus gallinae); assay: Test Example 1: controlling effect on red mites, Pasteur pipette treated with acetone solution; details: unfed adult red mites
Source text: The tip of a Pasteur pipette was sealed with Parafilm, and an acetone solution (liquid agent) of each of the samples shown in Table 2 below diluted to a predetermined concentration was poured into the pipette through an upper portion thereof. One minute later, the Parafilm at the tip was detached, and the liquid agent was discharged. After the pipette was air dried, absorbent cotton was inserted to an upper end of the pipette, and 20 unfed adult red mites (Dermanyssus gallinae) were released into the pipette. After the tip was sealed with Hemato-Seal, the pipette was stored in the dark in an incubator at a temperature of 27 to 28° C. and a humidity of 50 to 60%. After 24, 48, and 72 hours had passed since the treatment, the mites were observed under a stereomicroscope to determine whether the mites were dead or alive and whether the mites were affected. Then, the ratio (%) of dead and affected mites was calculated according to the following formula. Spinosad, trichlorfon, and permethrin were used as control drugs. The ratio (%) of dead and affected mites={(the number of dead mites+the number of affected mites)/(the number of survived mites+the number of affected mites+the number of dead mites)}×100

Molecule: C[C@@]1(c2ccc(Oc3ccccc3)cc2)OC(=O)N(Nc2ccccc2)C1=O (racemic) [Famoxadone]
- pest or weed control at 5000 ppm [1]: 81.7%

Molecule: CCCCCCCCCCCCC1=C(OC(C)=O)C(=O)c2ccccc2C1=O [Acequinocyl]
- pest or weed control at 5000 ppm [1]: 93.3%

Molecule: Cc1c(Br)c2ccc(F)cc2n1S(=O)(=O)c1ncn(S(=O)(=O)N(C)C)n1 [Amisulbrom]
- Ratio of dead and affected mites [1]: 92.9%

Molecule: CO/C=C(/C(=O)OC)c1ccccc1Oc1cc(Oc2ccccc2C#N)ncn1 [Azoxystrobin]
- Ratio of dead and affected mites [1]: 55.2%

Molecule: O=C(Nc1ccccc1-c1ccc(Cl)cc1)c1cccnc1Cl [Boscalid]
- pest or weed control at 5000 ppm [1]: 44.5%

Molecule: CC1=C(C(=O)Nc2ccccc2)SCCO1 [Carboxin]
- pest or weed control at 5000 ppm [1]: 42.6%

Molecule: CC(=O)Oc1c(C)c(C)nc2c(F)cc(C(C)(C)C)cc12 [Compound A]
- Ratio of dead and affected mites ([2]; 50 ppm, 2 hours later): 13%
- Ratio of dead and affected mites ([2]; 50 ppm, 24 hours later): 92%
- Ratio of dead and affected mites ([2]; 200 ppm, 2 hours later): 53%
- Ratio of dead and affected mites ([2]; 200 ppm, 24 hours later): 100%
- Ratio of dead and affected mites ([2]; 1000 ppm, 2 hours later): 100%
- Ratio of dead and affected mites ([2]; 1000 ppm, 24 hours later): 100%
- Ratio of dead and affected mites ([3]; 200 ppm, 24 hours later): 7%
- Ratio of dead and affected mites ([3]; 200 ppm, 48 hours later): 81%
- Ratio of dead and affected mites ([3]; 200 ppm, 72 hours later): 98%
- Ratio of dead and affected mites ([3]; 1000 ppm, 24 hours later): 100%
- Ratio of dead and affected mites ([3]; 1000 ppm, 48 hours later): 100%
- Ratio of dead and affected mites ([3]; 1000 ppm, 72 hours later): 100%

Molecule: CC(=O)Oc1c(C)c(C)nc2c(C)cc(C(C)(C)C)cc12 [Compound B]
- Ratio of dead and affected mites ([3]; 100 ppm, 24 hours later): 100%
- Ratio of dead and affected mites ([3]; 100 ppm, 48 hours later): 100%

Molecule: CC(=O)Oc1c(C)c(C)nc2c(C)cc(Br)cc12 [Compound C]
- Ratio of dead and affected mites ([3]; 100 ppm, 24 hours later): 91%
- Ratio of dead and affected mites ([3]; 100 ppm, 48 hours later): 95%

Molecule: CC(=O)Oc1c(C)c(C)nc2c(C)cc(F)cc12 [Compound D]
- Ratio of dead and affected mites ([3]; 100 ppm, 24 hours later): 100%
- Ratio of dead and affected mites ([3]; 100 ppm, 48 hours later): 100%

Molecule: COC(=O)Oc1c(C)c(C)nc2ccc(F)cc12 [Compound F]
- Ratio of dead and affected mites ([3]; 50 ppm, 24 hours later): 55%

Molecule: Cc1ccc(-c2c(Cl)nc(C#N)n2S(=O)(=O)N(C)C)cc1 [Cyazofamid]
- pest or weed control at 5000 ppm [1]: 23.2%

Molecule: CCC(Nc1ncnc(C)c1Cl)c1ccc(OC(F)F)cc1 (stereo not shown) [Diflumetorim]
- pest or weed control at 5000 ppm [1]: 100%

Molecule: Cc1nn(C)c(Oc2ccccc2)c1C=NOCc1ccc(C(=O)OC(C)(C)C)cc1 [Fenpyroximate]
- pest or weed control at 5000 ppm [1]: 100%

Molecule: C/C(=N/Nc1nc(C)cc(C)n1)c1ccccc1C [Ferimzone]
- pest or weed control at 5000 ppm [1]: 53.5%

Molecule: CO/C=C(/C(=O)OC)c1ccccc1COc1cc(C(F)(F)F)nc(OC(C)C)n1 [Fluacrypyrim]
- pest or weed control at 5000 ppm [1]: 19.3%

Molecule: O=[N+]([O-])c1cc(C(F)(F)F)c(Cl)c([N+](=O)[O-])c1Nc1ncc(C(F)(F)F)cc1Cl [Fluazinam]
- pest or weed control at 5000 ppm [1]: 82.5%

Molecule: CC1(C)C(C=C(Cl)c2ccc(Cl)cc2)C1C(=O)OC(C#N)c1ccc(F)c(Oc2ccccc2)c1 (stereo not shown) [Flumethrin]
- Ratio of dead and affected mites ([2]; 5 ppm, 24 hours later): 67%
- Ratio of dead and affected mites ([2]; 20 ppm, 24 hours later): 83%
- Ratio of dead and affected mites ([2]; 50 ppm, 2 hours later): 100%
- Ratio of dead and affected mites ([2]; 50 ppm, 24 hours later): 100%

Molecule: O=C(NCCc1ncc(C(F)(F)F)cc1Cl)c1ccccc1C(F)(F)F [Fluopyram]
- pest or weed control at 5000 ppm [1]: 50.5%

Molecule: CO/N=C(/C1=NOCCO1)c1ccccc1Oc1ncnc(Oc2ccccc2Cl)c1F [Fluoxastrobin]
- pest or weed control at 5000 ppm [1]: 66.5%

Molecule: CC(C)Oc1cccc(NC(=O)c2ccccc2C(F)(F)F)c1 [Flutolanil]
- pest or weed control at 5000 ppm [1]: 39.5%

Molecule: Cn1cc(C(=O)Nc2ccccc2-c2cc(F)c(F)c(F)c2)c(C(F)F)n1 [Fluxapyroxad]
- Ratio of dead and affected mites [1]: 61.3%

Molecule: Cc1nn(C)c(Cl)c1C(=O)Nc1cccc2c1C(C)OC2(C)C (stereo not shown) [Furametpyr]
- Ratio of dead and affected mites [1]: 56.1%

Molecule: Cc1cc(OC(C)C)ccc1C(=O)C(C)(C)NC(=O)c1sccc1C [Isofetamid]
- Ratio of dead and affected mites [1]: 17.4%

Molecule: CO/N=C(/C(=O)OC)c1ccccc1COc1ccccc1C [Kresoxim-Methyl]
- pest or weed control at 5000 ppm [1]: 52.8%

Molecule: Cc1ccccc1C(=O)Nc1cccc(OC(C)C)c1 [Mepronil]
- pest or weed control at 5000 ppm [1]: 52.1%

Molecule: CNC(=O)/C(=N/OC)c1ccccc1Oc1ccccc1 [Metominostrobin]
- pest or weed control at 5000 ppm [1]: 50%

Molecule: CNC(=O)/C(=N/OC)c1ccccc1CO/N=C(C)/C(=N/OC)C(/C)=N/OC [Orysastrobin]
- Ratio of dead and affected mites [1]: 82.6%

Molecule: Cc1nn(C)c(F)c1C(=O)Nc1ccccc1C(C)CC(C)C (stereo not shown) [Penflufen]
- Ratio of dead and affected mites [1]: 20.5%

Molecule: CC(C)CC(C)c1sccc1NC(=O)c1cn(C)nc1C(F)(F)F (stereo not shown) [Penthiopyrad]
- pest or weed control at 5000 ppm [1]: 35%

Molecule: CC1(C)C(C=C(Cl)Cl)C1C(=O)OCc1cccc(Oc2ccccc2)c1 (stereo not shown) [Permethrin]
- Ratio of dead and affected mites ([3]; 100 ppm, 48 hours later): 6%

Molecule: CO/C=C(/C(=O)OC)c1ccccc1COc1cccc(C(F)(F)F)n1 [Picoxystrobin]
- Ratio of dead and affected mites [1]: 80.5%

Molecule: COC(=O)N(OC)c1ccccc1COc1ccn(-c2ccc(Cl)cc2)n1 [Pyraclostrobin]
- pest or weed control at 5000 ppm [1]: 77.3%

Molecule: COC(=O)NCc1cc(/C(C)=N/OCc2cccc(C)n2)ccc1Cl [Pyribencarb]
- pest or weed control at 5000 ppm [1]: 31.1%

Molecule: Cc1nc(C(F)(F)F)c(C(=O)Nc2c(Br)cc(OC(F)(F)F)cc2Br)s1 [Thifluzamide]
- pest or weed control at 5000 ppm [1]: 63.2%

Molecule: COP(=O)(OC)C(O)C(Cl)(Cl)Cl (stereo not shown) [Trichlorfon]
- Ratio of dead and affected mites ([3]; 5000 ppm, 48 hours later): 84%

Molecule: CON=C(C(=O)OC)c1ccccc1CON=C(C)c1cccc(C(F)(F)F)c1 [Trifloxystrobin]
- pest or weed control at 5000 ppm [1]: 75.7%

Molecule: Spinosad
- Ratio of dead and affected mites ([2]; 50 ppm, 2 hours later): 18%
- Ratio of dead and affected mites ([2]; 50 ppm, 24 hours later): 80%
- Ratio of dead and affected mites ([2]; 200 ppm, 2 hours later): 3%
- Ratio of dead and affected mites ([2]; 200 ppm, 24 hours later): 94%
- Ratio of dead and affected mites ([3]; 200 ppm, 24 hours later): 33%
- Ratio of dead and affected mites ([3]; 200 ppm, 48 hours later): 69%
- Ratio of dead and affected mites ([3]; 200 ppm, 72 hours later): 72%
- Ratio of dead and affected mites ([3]; 1000 ppm, 24 hours later): 32%
- Ratio of dead and affected mites ([3]; 1000 ppm, 48 hours later): 82%
- Ratio of dead and affected mites ([3]; 1000 ppm, 72 hours later): 95%
